The source of these data is ChEMBL document CHEMBL1141819, “Antimycobacterial triterpenes from Melia volkensii” (1999).

The structures appear in SMILES notation. In brackets after ≈: the same amount, converted by molar mass.

This experiment concerns Mycobacterium tuberculosis. Briefly: Antimycobacterial activity against Mycobacterium tuberculosis H37Rv ATCC 27294 by radiorespirometric bioassay. The experiment is classed as functional.
What is called MIC is the lowest concentration that inhibits growth of the organism. Low readings indicate inhibition by little substance, high ones a need for much substance. In the case of `CC(C)=CCC[C@H]1C(=O)O[C@H]2C[C@]3(C)C4=CC[C@H]5C(C)(C)C(=O)CC[C@]5(C)[C@H]4C[C@@H](O)[C@@]3(C)[C@@H]21`, the lowest concentration to inhibit growth (MIC) was 16 µg/mL (≈ 34.1 µM).

Turning to `CC(C)=CCC[C@H]1C(=O)O[C@H]2C[C@]3(C)C4=C[C@@H](O)[C@H]5C(C)(C)C(=O)CC[C@]5(C)[C@H]4CC[C@@]3(C)[C@@H]21`, 4 µg/mL (≈ 8.53 µM) was the least that counted as inhibitory (MIC). Then `CC(=O)[C@H](CCC=C(C)C)[C@@H]1[C@@H](O)C[C@]2(C)C3=CC[C@H]4C(C)(C)C(=O)CC[C@]4(C)[C@H]3CC[C@@]12C` [KULONATE], with 16 µg/mL (≈ 34.1 µM).
